These results are taken from ChEMBL document CHEMBL3046521, “Synthesis and antitumor activity of (4-hydroxyphenyl)[5-substituted alkyl/aryl)-2-thioxo-1,3,4-thiadiazol-3-yl]methanone and [(3,4-disubstituted)-1,3-thiazol-2ylidene]-4-hydroxybenzohydrazide” (2011).

What all share (type): functional
One experiment concerns HCT-116. Kind of experiment: Cytotoxicity against Homo sapiens (human) HCT116 cells after 48 hr by sulforhodamine B assay. The conditions noted are these: HCT-116, 48 h. Background: The SRB assay estimates cell density from bound dye.
The subject of the next experiment is HOP-92. The experiment in a line: Cytotoxicity against Homo sapiens (human) HOP92 cells after 48 hr by sulforhodamine B assay. The conditions noted are these: HOP-92, 48 h; for TGI: read-out: pTGI (converted).
For the next experiment, the system named is HL-60(TB). Kind of experiment: Cytotoxicity against Homo sapiens (human) HL-60(TB) cells after 48 hr by sulforhodamine B assay. The conditions noted are these: HL-60, 48 h; for CC50: read-out: pLC50 (the source's name) (converted); for TGI: read-out: pTGI (converted).
Experiment [1] in a line: Anticancer activity in Homo sapiens (human) NCI-ADR-RES cells assessed as cell growth at 10^-5 M after 48 hr by SRB assay. The conditions noted are these: read-out: Activity.
In another experiment the test system is MCF7. The experiment in a line: Cytotoxicity against Homo sapiens (human) MCF7 cells after 48 hr by sulforhodamine B assay. The conditions noted are these: MCF7, 48 h.
The subject of a further experiment is PC-3. Kind of experiment: Cytotoxicity against Homo sapiens (human) PC3 cells after 48 hr by sulforhodamine B assay. The conditions noted are these: PC-3, 48 h; for TGI: read-out: pTGI (converted).
For experiment [2], the system named is CAKI-1. The experiment in a line: Cytotoxicity against Homo sapiens (human) Caki1 cells after 48 hr by sulforhodamine B assay. The conditions noted are these: CAKI-1, 48 h; for TGI: read-out: pTGI (converted).
Another experiment concerns OVCAR-3. The experiment in a line: Cytotoxicity against Homo sapiens (human) OVCAR3 cells after 48 hr by sulforhodamine B assay. The conditions noted are these: OVCAR-3, 48 h.
The next experiment deals with Malme-3M. Kind of experiment: Cytotoxicity against Homo sapiens (human) MALME-3M cells after 48 hr by sulforhodamine B assay.
Another experiment concerns SF-295. Kind of experiment: Cytotoxicity against Homo sapiens (human) SF295 cells after 48 hr by sulforhodamine B assay. The conditions noted are these: SF-295, 48 h; for TGI: read-out: pTGI (converted).
Another experiment relates to KM12. Kind of experiment: Cytotoxicity against Homo sapiens (human) KM12 cells after 48 hr by sulforhodamine B assay. The conditions noted are these: KM12, 48 h.
The subject of experiment [3] is HCC 2998. Kind of experiment: Cytotoxicity against Homo sapiens (human) HCC2998 cells after 48 hr by sulforhodamine B assay. The conditions noted are these: HCC 2998, 48 h.
The test system of another experiment is NCI-H522. Kind of experiment: Cytotoxicity against Homo sapiens (human) NCI-H522 cells after 48 hr by sulforhodamine B assay. The conditions noted are these: NCI-H522, 48 h.
The test system of a further experiment is CCRF-CEM. The experiment in a line: Cytotoxicity against Homo sapiens (human) CCRF-CEM cells after 48 hr by sulforhodamine B assay.
The test system of another experiment is MDA-MB-468. The experiment in a line: Cytotoxicity against Homo sapiens (human) MDA-MB-468 cells after 48 hr by sulforhodamine B assay. The conditions noted are these: MDA-MB-468, 48 h.
A short description of experiment [4]: Cytotoxicity against Homo sapiens (human) NCI-ADR-RES cells after 48 hr by sulforhodamine B assay.
The next experiment concerns MDA-MB-435. Kind of experiment: Cytotoxicity against Homo sapiens (human) MDA-MB-435 cells after 48 hr by sulforhodamine B assay. The conditions noted are these: MDA-MB-435, 48 h.
For experiment [5], the system named is HCC 2998. The experiment in a line: Anticancer activity in Homo sapiens (human) HCC2998 cells assessed as cell growth at 10^-5 M after 48 hr by SRB assay. The conditions noted are these: HCC 2998, 48 h, read-out: Activity.
Experiment [6] has as its system CAKI-1. Kind of experiment: Anticancer activity in Homo sapiens (human) Caki1 cells assessed as cell growth at 10^-5 M after 48 hr by SRB assay. The conditions noted are these: CAKI-1, 48 h, read-out: Activity.
The subject of a further experiment is LOX IMVI. Kind of experiment: Anticancer activity in Homo sapiens (human) LOXIMVI cells assessed as cell growth at 10^-5 M after 48 hr by SRB assay. The conditions noted are these: read-out: Activity.

In general, GI50 refers to the concentration that inhibits growth by half. The term LC50 denotes the concentration lethal to half of the exposed cells or organisms. High values mean lower toxicity, low ones greater toxicity. Consider `COc1ccc(-n2c(-c3ccc(Cl)cc3)cs/c2=N\NC(=O)c2ccc(O)cc2)c(OC)c1`, for which the GI50 with HCT-116 was 27.5 µM; with HOP-92, 14.5 µM; with HL-60(TB), 17.8 µM; in the experiment on MCF7 it was 25.1 µM; in the experiment on PC-3, 18.2 µM; with CAKI-1 [2], 22.9 µM. Moreover, the GI50 in the experiment with OVCAR-3 was 26.9 µM; in the experiment with Malme-3M, 25.1 µM; in the experiment on SF-295 it was 27.5 µM. The median lethal concentration (LC50) with HCT-116, in the experiment with HOP-92, in the experiment with MCF7, with PC-3, with CAKI-1 [2] and with OVCAR-3 was greater than 100 µM in each case. In addition, the LC50 in the experiment on Malme-3M and in the experiment on SF-295 was greater than 100 µM throughout. Besides, the TGI in the experiment on HCT-116 (read-out: pTGI (converted)) is greater than 100 µM; in the experiment on HOP-92, 64.6 µM; in the experiment with HL-60(TB) it was 81.3 µM; with MCF7 (read-out: pTGI (converted)) it was greater than 100 µM; in the experiment on PC-3 it was greater than 100 µM; in the experiment on CAKI-1 [2] it was greater than 100 µM. The results for the TGI in the experiment with OVCAR-3 (read-out: pTGI (converted)), with Malme-3M (read-out: pTGI (converted)) and in the experiment on SF-295 were 83.2 µM, 91.2 µM and greater than 100 µM, respectively. Further, the CC50 with HL-60(TB) is greater than 100 µM. In addition, in experiment [1], the growth at 10 µM is -1.18%.

Regarding `O=C(N/N=c1\scc(-c2ccc(Cl)cc2)n1-c1ccc(Cl)cc1Cl)c1ccc(O)cc1`, the concentration for 50% growth inhibition (GI50) in the experiment on KM12 was 2.63 µM; in the experiment with HCC 2998 [3] it was 1.95 µM; in the experiment with NCI-H522, 2.57 µM; in the experiment with HOP-92, 2.95 µM; in the experiment on HL-60(TB) it was 0.302 µM; in the experiment on CCRF-CEM, 0.977 µM. For the same compound, the 50% growth inhibitory concentration (GI50) was 3.89 µM with MDA-MB-468; 3.39 µM in the experiment on PC-3; 3.31 µM with CAKI-1 [2]; 2.95 µM in experiment [4]; 2.88 µM in the experiment with MDA-MB-435; 2.82 µM with SF-295. The LC50 in the experiment with KM12 was 87.1 µM; in the experiment on HCC 2998 [3] it was 53.7 µM; with NCI-H522, greater than 100 µM; with HOP-92, 49 µM; in the experiment on CCRF-CEM, greater than 100 µM; with MDA-MB-468, greater than 100 µM. For the same compound, the 50% lethal concentration (LC50) (with PC-3; in the experiment on CAKI-1 [2]; in experiment [4]; in the experiment with MDA-MB-435; with SF-295) was greater than 100 µM throughout. For the same compound, the TGI in the experiment with KM12 (read-out: pTGI (converted)) was 8.51 µM; in the experiment with HCC 2998 [3] (read-out: pTGI (converted)), 5.25 µM; in the experiment with NCI-H522 (read-out: pTGI (converted)), 20 µM; in the experiment on HOP-92, 7.59 µM; in the experiment with HL-60(TB) it was 38 µM; with CCRF-CEM (read-out: pTGI), greater than 100 µM. Moreover, the TGI in the experiment on MDA-MB-468 (read-out: pTGI (converted)) is greater than 100 µM; in the experiment on PC-3 it was greater than 100 µM; with CAKI-1 [2] it was 52.5 µM; in experiment [4] (read-out: pTGI (converted)) it was 8.32 µM; in the experiment on MDA-MB-435 (read-out: pTGI (converted)) it was 22.9 µM; with SF-295, 9.77 µM. Further, in the experiment on HL-60(TB), the CC50 is greater than 100 µM. The growth at 10 µM with HCC 2998 [5] is -1.56%.

Regarding `COc1ccc(-c2nn(C(=O)c3ccc(O)cc3)c(=S)s2)cc1`, the growth at 10 µM in the experiment with CAKI-1 [6] is 68%.

`O=C(c1ccc(O)cc1)n1nc(-c2ccc(O)cc2)sc1=S`: in the experiment with LOX IMVI, the growth at 10 µM was -0.61%.
